Holding throughout (format): cell-based, human
For series [1], the system named is LNCaP. The experiment in a line: Acridine orange/ethidium bromide membrane integrity. The following applies: 48 h hBD-1 induction. As for the experimental part:
(§1) Analysis of Membrane Permeability: Acridine orange (AO)/ethidium bromide (EtBr) dual staining was performed to identify changes in cell membrane integrity, as well as apoptotic cells by staining the condensed chromatin. AO stains viable cells as well as early apoptotic cells, whereas EtBr stains late stage apoptotic cells that have lost […]. Briefly, cells were seeded into 2 chamber culture slides (BD Falcon, USA). Cells transfected with empty pIND plasmid/pvgRXR or pIND DEFB1/pvgRXR were induced for 24 or 48 h with media containing 10 μM Ponasterone A. Control cells were provided fresh media at 24 and 48 h. In order to determine the effect of PAX2 inhibition on membrane integrity, separate culture slides containing DU145, PC3 and LNCaP were treated with PAX2 siRNA and incubated for 4 days. Following this, cells were washed once with PBS and stained with 2 ml of a mixture (1:1) of AO (Sigma, USA) and EtBr (Promega, USA) (5 ug/ml) solution for 5 min. Following staining, the cells were again washed with PBS. Fluorescence was viewed by a Zeiss LSM 5 Pascal Vario 2 Laser Scanning Confocal Microscope (Carl Zeiss Jena, Germany). The excitation color wheel contain BS505-530 (green) and LP560 (red) filter blocks which allowed for the separation of emitted green light from AO into the green channel and red light from EtBr into the red channel. The laser power output and gain control settings within each individual experiment were identical between control and DEFB1 induced cells. The excitation was provided by a Kr/Ar mixed gas laser at wavelengths of 543 nm for AO and 488 nm for EtBr. Slides were analyzed under 40× magnification and digital images were stored as uncompressed TIFF files and exported into Photoshop CS software (Adobe Systems, San Jose, Calif.) for image processing and hard copy presentation.
(§2) Analysis of membrane integrity: Acridine orange (AO)/ethidium bromide (EtBr) dual staining was performed to identify changes in cell membrane integrity, as well as apoptotic cells by staining the condensed chromatin. AO stains viable cells and early apoptotic cells, whereas EtBr stains late stage apoptotic cells that have compromised membranes. Briefly, PC3, DU145 and LNCaP cells were seeded into 2-chamber culture slides (BD Falcon). Cells transfected with empty plasmid or hBD-1 plasmid were induced for 24 or 48 h with media containing 10 μM Pon A, while control cells received fresh growth media at each time point. After induction, cells were washed once with PBS and stained with 2 ml of a mixture (1:1) of AO (Sigma, St. Louis, Mo.) and EtBr (Promega) (5 μg/ml) solution for 5 min and were again washed with PBS.
(§3) Fluorescence was viewed by a Zeiss LSM 5 Pascal Vario 2 Laser Scanning Confocal Microscope (Carl Zeiss). The excitation color wheel contains BS505-530 (green) and LP560 (red) filter blocks which allowed for the separation of emitted green light from AO into the green channel and red light from EtBr into the red channel. The laser power output and gain control settings within each individual experiment were identical between control and hBD-1 induced cells. The excitation was provided by a Kr/Ar mixed gas laser at wavelengths of 543 nm for AO and 488 nm for EtBr. Slides were analyzed under 40× magnification and digital images were stored as uncompressed TIFF files and exported into Photoshop CS software (Adobe Systems) for image processing and hard copy presentation. […]

In series [2] the test system is PC3. The series is described as above. The procedure: as §1, §2, §3
Series [3] has as its system DU145. The series is described as above. As for the experimental part: as §1, §2, §3
Series [4] has as its system LNCaP. Description: MTT cell viability assay. The following applies: DEFB1 (hBD-1) induction 24-72 h. The procedure:
(§4) MTT Cell Viability Assay: To examine the effects of DEFB1 on cell growth, metabolic 3-[4,5-dimethylthiazol-2-yl]-2,5 diphenyl tetrazolium bromide (MTT) assays were performed. PC3, DU145 and LNCaP cells co-transfected with pVgRXR plasmid and pIND/DEFB1 construct or empty pIND vector were seeded onto a 96-well plate at 1-5×10^3 cells per well. Twenty-four hours after seeding, fresh growth medium was added containing 10 μM Ponasterone A daily to induce DEFB1 expression for 24-, 48- and 72 hours after which the MTT assay was performed according to the manufacturer's instructions (Promega). Reactions were performed three times in triplicate.
(§5) MTT Cytotoxicity Assay: DU145, PC3 and LNCaP cells (1×105) were transfected with 0.5 μg of the PAX2 siRNA pool or control siRNA pool using Codebreaker transfection reagent according to the manufacturer's protocol (Promega). Next, cell suspensions were diluted and seeded onto a 96-well plate at 1-5×10^3 cells per well and allowed to grow for 2-, 4- or 6 days. After culture, cell viability was determined by measuring the conversion of 3-[4,5-dimethylthiazol-2-yl]-2,5 diphenyl tetrazolium bromide, MTT (Promega), to a colored formazan product. Absorbance was read at 540 nm on a scanning multiwell spectrophotometer.
(§6) MTT cell viability assay: To examine the effects of hBD-1 on cell growth, metabolic 3-[4,5-dimethylthiazol-2-yl]-2,5-diphenyl tetrazolium bromide (MTT) assay was performed. DU145, LNCaP, PC3 and PC3/AR+ cells co-transfected with pvgRXR plasmid and pIND/hBD-1 construct or control pvgRXR plasmid were seeded onto a 96-well plate at 1-5×10^3 cells per well. Twenty-four hours after seeding, fresh growth medium was added containing 10 μM Pon A daily to induce hBD-1 expression for 24, 48 and 72 h after which the MTT assay was performed according to the manufacturer's instructions (Promega). Reactions were performed three times in triplicate.
(§7) MTT cytotoxicity assay: DU145, PC3 and LNCaP cell suspensions were diluted and seeded onto a 96-well plate at 1-5×10^3 cells per well. Next the cells were transfected, according to the manufacturer's protocol (Promega), with 5 pg/cell of the PAX2 siRNA pool, control siRNA pool, or the Codebreaker transfection reagent alone. All cells were allowed to grow for 2-, 4- or 6 days after treatment. Cell viability was then determined by measuring the conversion of 3-[4,5-dimethylthiazol-2-yl]-2,5 diphenyl tetrazolium bromide, MTT (Promega) to a colored formazan product. Absorbance was read at 540 nm on a scanning multi-well spectrophotometer.

For series [5], the system named is PC3. The experiment in a line: MTT cell viability assay. The procedure:
as §4, §5, §6, §7

Series [6] deals with DU145. The experiment in a line: MTT cell viability assay. As for the experimental part:
as §4, §5, §6, §7

The mark [7] stands for this setting: PC3, 24 h DEFB1 (hBD-1) induction.
The mark [8] stands for this setting: PC3, 48 h DEFB1 (hBD-1) induction.
[9] abbreviates: DU145, 48 h DEFB1 (hBD-1) induction.

Take “DEFB1: human beta defensin-1 expressed from the ecdysone inducible pIND/DEFB1 construct, induced with Ponasterone A (DHYNCVSSGGQCLYSACPIFTKIQGTCYRGKAKCCK; UniProt P60022 33-68, looked up)”: the “membrane integrity (AO/EtBr staining)” value with LNCaP [1] was “no observable alterations to membrane integrity”; with PC3 [2] (setting [7]), “accumulation of EtBr in the cytoplasm”; in the series with PC3 [2] (setting [8]), “condensed nuclei and appeared yellow”; with DU145 [3] (DU145, 24 h DEFB1 (hBD-1) induction), “accumulation of EtBr in the cytoplasm”; in the series on DU145 [3] (setting [9]) it was “condensed nuclei and appeared yellow”. In addition, the “effect on cell viability” value in the series with LNCaP [4] was “no significant effect”. The relative cell viability with PC3 [5] (setting [7]) is listed as 56%; with PC3 [5] (setting [8]), 37%; in the series with PC3 [5] (PC3, 72 h DEFB1 (hBD-1) induction), 29%; with DU145 [6] (DU145, 24 h DEFB1 (hBD-1) induction, 10 μM Ponasterone A) it was 72%; in the series on DU145 [6] (setting [9]), 49%; with DU145 [6] (DU145, 72 h DEFB1 (hBD-1) induction), 44%.

The values are drawn from patent publication US8445444B2, “Compositions and methods for diagnosing, treating, and preventing prostate conditions” (Phigenix, Inc., priority 2007, dated 2013).
